The source of these data is patent US8664407B2, “Chemical linkers with single amino acids and conjugates thereof” (Medarex, LLC, priority 2007, dated 2014).

In one data set the test system is 786-O. Briefly: In vivo study: 786-O tumor xenograft, toxin-conjugated anti-CD70 HuMAb 2H5. Particulars: 0.03 μmol toxin dosage, IP, dosed on Day 0; CD70.1 antibody conjugates; 786-O tumors in male CB17.SCID mice. The protocol:
786-O (ATCC Accession No. CRL-1932) cells were expanded in vitro using standard laboratory procedures. Male CB17.SCID mice (Taconic, Hudson, N.Y.) between 6-8 weeks of age were implanted subcutaneously in the right flank with 2.5 million 786-O in 0.2 ml of PBS/Matrigel (1:1) per mouse. Mice were weighed and measured for tumors three dimensionally using an electronic caliper twice weekly after implantation. Tumor volumes were calculated as height×width×length. Mice with tumors averaging 200 mm^3 were randomized into treatment groups. The mice were dosed intraperitoneally with PBS vehicle, toxin-conjugated isotype control antibody or toxin-conjugated anti-CD70 HuMAb 2H5 on Day 0. Each group contained 8 mice.
FIGS. 1, 2, 5, and 6 show the mean tumor volume versus days past dosing and FIGS. 3, 4, 7, and 8 show the median tumor volume versus days past dosing (0.03 μmol—FIGS. 1, 3, 5, and 7; 0.005 μmol—FIGS. 2, 4, 6, and 8).

The next data set concerns the target T1, cathepsin B (Bos taurus, UniProt P07688).
T1 construct: bovine spleen cathepsin B (Sigma product code C-6286) was prepared by dissolving lyophilized solid; purchased Sigma C-6286; host or cells: bovine spleen (tissue-derived)
Briefly: Cathepsin B mediated cleavage of single amino acid linkers (RP-HPLC, A340). The class given is biochemical, bovine. Particulars: bovine, activated bovine spleen cathepsin B (isolated enzyme), cysteine modified compound, pH 5.0, 37° C., read-out: Approx. substrate half-life (converted). The protocol: (§1) A panel of single amino acid compounds, each differing with respect to amino acid composition but of otherwise similar structure, was assayed for cathepsin B activity. The following compounds were tested: compounds A,B,C,D,E and F. The appearance of cathepsin B-mediated products was monitored by application to RP-HPLC with quantitation of drug products by their absorbance at 340 nm.
(§2) Cathepsin B Enzyme Assay: A stock solution of bovine spleen cathepsin B (Sigma product code C-6286) was prepared by dissolving lyophilized solid (6 mg at 56% protein) in 25 mM sodium acetate/1 mM EDTA pH 5.0 buffer (10 mL). Enzyme activation was accomplished by mixing the stock solution (50 uL) with activation buffer (100 ul) comprised of 30 mM DTT/15 mM EDTA, followed by incubation at room temperature for 15 minutes. The activated cathepsin B was diluted 1:1 with a solution of 25 mM sodium acetate/1 mM EDTA, pH 5.0 prior to use. To assay for drug release, cysteine modified compound (4 uL of 2.5 mM solution in DMSO) was added to 25 mM sodium acetate/1 mM EDTA pH 5.0 buffer (86 uL) and activated cathepsin B (10 uL at 3.6 U/mL). Samples were incubated at 37° C. for appropriate time points and stopped with methanol (100 uL).
(§3) Compounds samples (40 uL) were applied to a Waters 2795 HPLC system fitted with a reverse phase column (Waters Nova-pak C18, 3.9×150 mm column, product code WAT086344). Sample chromatography was accomplished using a dual mobile phase system comprised of water/0.1% TFA (A buffer) and acetonitrile/0.1% TFA (B buffer) with a gradient elution of 10-100% B buffer over 20 min at 1.0 mL/min. compounds were detected by its absorbance at 340 nm (A340).

In data set [1] the target is T2, bovine spleen cathepsin B (Bos taurus, UniProt P07688).
T2 construct: bovine spleen cathepsin B (Sigma product code C-6286) was prepared by dissolving lyophilized solid; purchased Sigma C-6286; host or cells: bovine spleen (tissue-derived)
The data set is described as above. The class given is biochemical. Particulars: cysteine modified compound, activated cathepsin B, pH 5.0, 37° C. The protocol: as §1, §2, §3

Consider `CN1CCN(C(=O)Oc2cc3c(c4ccccc24)[C@H](CCl)CN3C(=O)c2cc3cc(NC(=O)c4ccc(NC(=O)[C@H](CCCNC(N)=O)NC(=O)CCCCCN5C(=O)C=CC5=O)cc4)ccc3[nH]2)CC1` [Compound A], for which, in the data set with 786-O, the “Efficacy (tumor volume versus days past dosing), descending order” value is given as “Compound E>Compound F>Compound A>Compound C, Compound D>Compound B>Compound G”. Besides, at cathepsin B, the half-life at 100 µM was about 24 h. Besides, the “Cathepsin B cleavage” value in data set [1] is recorded as “Yes”; in data set [1] (listed as compound A) it was “cleaved by cathepsin B”.
As for `CN1CCN(C(=O)Oc2cc3c(c4ccccc24)[C@H](CCl)CN3C(=O)c2cc3cc(NC(=O)c4ccc(NC(=O)[C@H](CCCNC(N)=O)NCCNC(=O)CCCCCN5C(=O)C=CC5=O)cc4)ccc3[nH]2)CC1` [Compound B], the “Efficacy (tumor volume versus days past dosing), descending order” value with 786-O was “Compound E>Compound F>Compound A>Compound C, Compound D>Compound B>Compound G”. In data set [1], the “Cathepsin B cleavage” value is “No”.
As to `CN1CCN(C(=O)Oc2cc3c(c4ccccc24)[C@H](CCl)CN3C(=O)c2cc3c4c(ccc3[nH]2)N(C(=O)c2ccc(NC(=O)[C@H](CCCNC(N)=O)NC(=O)CCCCCN3C(=O)C=CC3=O)cc2)CC4)CC1` [Compound C], the “Efficacy (tumor volume versus days past dosing), descending order” value in the data set with 786-O is “Compound E>Compound F>Compound A>Compound C, Compound D>Compound B>Compound G”. Further, in data set [1], the “Cathepsin B cleavage” value was “No”.
For `CN1CCN(C(=O)Oc2cc3c(c4ccccc24)[C@H](CCl)CN3C(=O)c2cc3cc(NC(=O)c4ccc(NC(=O)[C@H](CO)NC(=O)CCCN5C(=O)C=CC5=O)cc4)ccc3[nH]2)CC1` [Compound D], the “Efficacy (tumor volume versus days past dosing), descending order” value in the data set with 786-O is on record as “Compound E>Compound F>Compound A>Compound C, Compound D>Compound B>Compound G”. The “Cathepsin B cleavage” value in data set [1] is “No”; in data set [1] (listed as compound D), “cleaved by cathepsin B”.
For `CN1CCN(C(=O)Oc2cc3c(c4ccccc24)[C@H](CCl)CN3C(=O)c2cc3cc(NC(=O)c4ccc(NC(=O)[C@H](CCCCN)NC(=O)CCCCCN5C(=O)C=CC5=O)cc4)ccc3[nH]2)CC1` [Compound E], the “Efficacy (tumor volume versus days past dosing), descending order” value in the data set with 786-O is “Compound E>Compound F>Compound A>Compound C, Compound D>Compound B>Compound G”. The half-life at 100 µM on cathepsin B is about 4 h. Also, in data set [1], the “Cathepsin B cleavage” value was “Yes”.
Take `CN1CCN(C(=O)Oc2cc3c(c4ccccc24)[C@H](CCl)CN3C(=O)c2cc3cc(NC(=O)c4ccc(NC(=O)[C@H](CCC(=O)O)NC(=O)CCCCCN5C(=O)C=CC5=O)cc4)ccc3[nH]2)CC1` [Compound F]: in the data set on 786-O, the “Efficacy (tumor volume versus days past dosing), descending order” value is “Compound E>Compound F>Compound A>Compound C, Compound D>Compound B>Compound G”. Also, in data set [1], the “Cathepsin B cleavage” value is listed as “No”.
Turning to `CN1CCN(C(=O)Oc2cc3c(c4ccccc24)[C@H](CCl)CN3C(=O)c2cc3cc(NC(=O)c4ccc(NCC(=O)NCCNC(=O)CCCN5C(=O)C=CC5=O)cc4)ccc3[nH]2)CC1` [Compound G], the “Efficacy (tumor volume versus days past dosing), descending order” value in the data set with 786-O is reported as “Compound E>Compound F>Compound A>Compound C, Compound D>Compound B>Compound G”.

One may read the half-life as the time in which the quantity being followed falls by half.
